Source: publication PMC7932521, “2-aminobenzimidazoles for leishmaniasis: From initial hit discovery to in vivo profiling” (PLoS Neglected Tropical Diseases, 2021)
Read-outs that look alike come from different tables or passages of the source.

Tests used:
[1] = test system: Leishmania infantum MHOM/MA(BE)/67/ITMAP263 amastigotes; test: L. infantum intracellular amastigote assay in PMM; type: cell-based; conditions: for SI: selectivity index (CC50 / IC50): CC50 / L. infantum IC50; for IC50: read-out: L. infantum IC50
Protocol: (§1) Leishmania infantum MHOM/MA(BE)/67/ITMAP263 amastigotes were collected from the spleen of infected donor Golden hamsters. Primary peritoneal mouse macrophages (PMM) were used as host cells for in vitro assays. PMM were collected from Swiss mice after 2 days of peritoneal stimulation with a 2% suspension of potato starch and maintained in RPMI-1640 medium supplemented with 200 mM L-glutamine, antibiotics and 5% FCS at 37°C and 5% CO2. Promastigotes of L. infantum chagasi (luciferase) (MHOM/BR/2005/NLC) obtained as described in Reimão et al.,[27] were grown in M199 medium supplemented with 10% FCS, 0.25% hemin, 32 μg/ml hygromycin and 2% sterile human urine at 25°C and 5% CO2.
(§2) Stock solutions of the compounds at 20 mM were prepared in 100% DMSO. Next, the compounds were serially pre-diluted in DMSO followed by a further dilution in demineralized water to assure a final in-test DMSO concentration below 1%. The compounds were tested at 4-fold dilutions starting at 64 μM.
For the antileishmania in vitro assays, 3×10^4 PMM/well were seeded in 96-well plates. After 24h, 5×10^5 amastigotes/well were added and incubated for 2h at 37°C. Next, the compounds in 4-fold serial dilutions were added and the plates were further incubated for 5 days (37°C, 5% CO2). Parasite burdens were assessed using an inverted microscope after Giemsa staining. The results were expressed as percent reduction in parasite burdens compared to negative control wells (100% growth) and IC50 values were determined. Values represent the geometric mean of at least two independent experiments. Miltefosine was used as the positive control in all plates.

[2] = test system: PMM (Primary Mouse Macrophages); test: Cytotoxicity on primary peritoneal mouse macrophages; type: cell-based; conditions: read-out: PMM IC50
Protocol: as §1, §2

[3] = test system: MRC-5 cells; test: MRC-5 cytotoxicity; type: cell-based; conditions: S1 Data
[4] = Experimental distribution coefficient (eLogD); type: physicochemical
Protocol: To determine the lipophilicity of the compounds, a methodology based on the retention time of molecules in reverse stationary phase (Ascentis RP-Amide HPLC column) was used. The chromatogram was obtained using LC-MS/MS. Test compounds were prepared at 1.0 μg/mL by adding the stock solution at (1:1) mobile phases A:B + internal standard at 200nM (A: 5% methanol in 10mM ammonium acetate pH 7.4, B: 100% methanol), DMSO concentration must be lower than 2%. […] The retention time (in minutes) of each of the eight standards was plotted against their LogD values. The resulting equation for the calibration curve (y = mx + b) was used to calculate the LogD values for the test compounds.

[5] = Parallel artificial membrane permeability assay (PAMPA); type: in vitro ADME; conditions: S1 Data; for Papp at 5 h, 10 μM: PAMPA, read-out: PAMPA Pe
Protocol: To determine the passive permeability of the compounds, a 96-well plate containing membranes pre-coated with lipids (Corning Gentest # 353015) was used. The solutions of the compounds were prepared by diluting the stock solutions (10mM) in phosphate buffered saline (PBS) pH 6.5 at a final concentration of 10μM. The solutions diluted in PBS pH 6.5 were then added to the donor portion of the plate (300 μl/well), while PBS pH 7.4 (200 μl/well) was added to the acceptor portion. The two portions of the plate were then coupled, and the system was incubated for 5 h at 37°C. At the end of the incubation, samples were collected from the donor and acceptor plates, and then added to plates containing quench solution (10% water and 90% methanol: acetonitrile (50:50) + 50 nM tolbutamide). The final concentrations of compounds in the donor, acceptor, and initial solution (T0) wells were analyzed using LC-MS/MS. The results were used to calculate an effective permeability (Pe) value. The PAMPA assay was performed in triplicate (n = 3).

[6] = Mouse liver microsomal stability; type: in vitro ADME; conditions: for MLM CLint: S1 Data; for microsomal CLint at 0.5 μM: CD1, mouse, liver microsomes
Protocol: The metabolic stability of the compounds was evaluated in human (pool of 200 donors, XenoTech) and mouse liver microsomes (CD1 mouse, GIBCO). Test compounds were prepared at a concentration of 0.5 μM and incubated with 0.25 mg/mL liver microsomes at pH 7.4 and 37°C. The reaction was started by addition of NADPH at […]. Samples were taken at 0, 5, 10, 15, 20 and 30 minutes. The reaction was stopped by the addition of acetonitrile:methanol (1:1) containing an internal standard (tolbutamide at 50 nM). Compounds were quantified by liquid chromatography triple quadrupole mass spectrometry (LC-MS/MS). Peak area ratios (analyte/internal standard) were converted to % remaining using the area ratio at time 0 as 100%. Half-life (t1/2 = ln(2)/k) in minutes and intrinsic clearance (Clint = k x 1000/(0.25)) in μL/min/mg were calculated using a non-linear regression from % remaining versus incubation time. From this plot, the slope (k) was determined. The analysis conditions were: analytical column (Gemini C18, […], Phenomenex), electrospray ionization source (ESI) in positive and negative mode, mobile phase A (water + 0.1% formic acid) and B (acetonitrile + 0.1% formic acid), flow rate of 0.7 mL/min.

[7] = MRC-5 cytotoxicity; type: cell-based; conditions: human, MRC-5 cells; S1 Data
[8] = HEPG2 cytotoxicity; type: cell-based; conditions: human, HepG2 cells; S1 Data
Text: Supplement pntd.0009196.s001.xlsx, sheet "Complete Dataset" | column: HEPG2 CC50 (uM)

[9] = intracellular amastigotes in PMM, 5 days
[10] = reverse stationary phase HPLC column (Ascentis RP-Amide), pH 7.4, S1 Data
[11] = Leishmania infantum, 120 h, intracellular amastigotes in PMM, 5 days
[12] = pH 7.4, S1 Data, read-out: MLM CLint

Compound | SI: selectivity index (CC50 / IC50) [1] | IC50 ([1]; S1 Data) [µM] | L. infantum IC50 [1, 9] | IC50 ([2]; S1 Data) [µM] | CC50 [3] [µM] | eLogD ([4]; S1 Data) | PAMPA Pe [5] | MLM CLint [6] [µL/min/mg] | IC50 ([1]; Leishmania infantum, S1 Data) [µM] | IC50 ([2]; Mus musculus, Macrophage) [µM] | CC50 [7] [µM] | chromatographic logD [4, 10] | chromatographic logD ([4]; reverse-phase HPLC retention (Ascentis RP-Amide column), experimental, pH 7.4) | Papp at 5 h, 10 μM [5] [×10⁻⁶ cm/s] | IC50 [1, 11] [µM] | CC50 [8] [µM] | microsomal CLint at 0.5 μM [6, 12] [µL/min/mg] | microsomal CLint at 0.5 μM ([6]; pH 7.4, mouse liver microsome intrinsic clearance, read-out: MLM Clint) [µL/min/mg] | IC50 [1, 9] [µM] | eLogD ([4]; experimental, pH 7.4)
CCCn1c(NC(=O)Cc2ccc(F)cc2)nc(c13)cc(C(=O)O)cc3 [Compound 10] | 1 | > 64 | inactive | > 64 | > 64 | 1.83 | 6.27 10-6 cm/s | – | – | – | – | – | – | – | – | – | – | – | – | –
CCCn1c(NC(=O)Cc2ccc(F)cc2)nc(c13)cc(C(=O)NC)cc3 [Compound 11] | 1 | > 64 | – | > 64 | 34.8 | 3.18 | 9.18 10-6 cm/s | 66 | – | – | – | – | – | – | – | – | – | – | – | –
CCCn1c(NC(=O)Cc2ccc(F)cc2)nc2c(F)cccc21 [Compound 5, Fc1cccc2c1nc(NC(=O)Cc3ccc(F)cc3)n2CCC] | 1 | – | – | – | – | – | – | 715 | > 64 | > 64 | > 64 | 3.57 | 3.6 | 16.2 | – | – | – | – | – | –
N#Cc1ccc2nc(NC(=O)Cc3ccc(F)cc3F)n(CC(F)(F)F)c2c1 [Compound 24, Fc1cc(F)ccc1CC(Nc2nc(ccc(C#N)c3)c3n2CC(F)(F)F)=O] | – | – | – | – | – | – | – | – | 10.2 | 16 | > 64 | 3.85 | – | 0.76 | 10 | > 64 | 20 | 19.6 | – | –
O=C(Cc1ccc(F)cc1)Nc1nc2ccc(F)cc2n1CC1CC1 [Compound 21, Fc1cc2c(nc(NC(=O)Cc3ccc(F)cc3)n2CC4CC4)cc1] | – | – | – | – | – | – | – | – | 8.06 | > 64 | 17.4 | 4.12 | – | 19.4 | 8.1 | – | 887 | – | – | –
O=C(c1cc(nc(NC(=O)Cc2ccc(F)cc2)n3CCC)c3cc1)N4CCCC4 [Compound 13] | 6 | 9.79 | – | > 64 | > 64 | 3.99 | 7.92 10-6 cm/s | 138 | – | – | – | – | – | – | – | – | – | – | 9.8 | 4.0
O=C(Nc1n(C2CC2)c(c3n1)ccc(F)c3)Cc4ccc(Cl)cc4 [Compound 22] | – | 2.54 | – | 25.4 | 21.9 | 3.98 | 17.70 10-6 cm/s | 380 | – | – | – | – | – | – | – | – | – | – | – | –
